Article PMC8129133, “Polymer-free corticosteroid dimer implants for controlled and sustained drug delivery” (Nature Communications, 2021)
Where “and” joins values, the source holds several entries; their conditions need not be identical. Identical values can stand only once.

Test: In vitro release
Assay type: physicochemical
Conditions: for 30G x 6 mm - Cumulative Dex Release / 23G x 6 mm - Cumulative Dex Release: single samples and AVG; for Dex Release: Fig 5h implants, 1.5 ml FBS; for Cumulative Dex (%) / Cumulative Dex-TEG (%) / Cumulative Dex-TEG-Dex (%): Fig 4d pellet
Method: Pellets for release studies. Crystalline drug dimers were weighed on a stainless steel coupon. In the case of blends with a second drug, the dimer and drug were mixed at the desired mass ratio with mortar and pestle prior to weighing. Samples were transferred to a heat press (Carver Laboratory Press). A PTFE mold containing an array of 1 mm diameter holes of 1 mm depth was placed on top of the melt, and pressure was applied for 2 min. Molded pellets were cooled to room temperature and punched out of the mold, yielding a pellet of 1 mm height × 1 mm diameter.
Release studies were carried out using different media, including PBS (pH 7.4, Gibco), 100% FBS (Sigma, F1051), 1% FBS in PBS pH 7.4, and 3.6% BSA (Sigma, A7906) in PBS (pH 7.4, Gibco). […] Samples were incubated in release medium at 37 °C under constant agitation on an orbital shaker at 115 rpm (VWR). At designated timepoints, sampling was performed by complete removal of medium and replenishment with fresh buffer. Sampling timepoints included 24 h and then every 3–4 days thereafter. For PBS release conditions, samples were analyzed directly. For samples with protein (100% FBS, 1% FBS, 3.6% BSA), protein was precipitated by addition of acetonitrile. Samples were vortexed and centrifuged to separate extracted drug from precipitated protein. The supernatant was then analyzed for drug concentration by HPLC.

In the case of `C[C@@H]1C[C@H]2[C@@H]3CCC4=CC(=O)C=C[C@]4(C)[C@@]3(F)[C@@H](O)C[C@]2(C)[C@@]1(O)C(=O)COC(=O)OCCOCCOCCOC(=O)OCC(=O)[C@@]1(O)[C@H](C)C[C@H]2[C@@H]3CCC4=CC(=O)C=C[C@]4(C)[C@@]3(F)[C@@H](O)C[C@@]21C` [Dex-TEG-Dex], the “30G x 6 mm - Cumulative Dex Release” value (Fig 4e, Day 24, mean) is reported as 14632.22 ng, the “23G x 6 mm - Cumulative Dex Release, %” value (Fig 4e, Day 28, AVG) is reported as 5.83% and the “30G x 6 mm - Cumulative Dex Release, %” value (Fig 4e, Day 28, AVG) is reported as 26.07%. For the same compound, the “23G x 6 mm - Cumulative Dex Release” value (Fig 4e, Day 28) was 22513.24 ng and 19328.26 ng and 15619.66 ng and 21703.43 ng and 22527.37 ng and 19996.59 ng, the “30G x 6 mm - Cumulative Dex Release” value (Fig 4e, Day 28) was 17080.41 ng and 16856.88 ng and 15635.65 ng and 15175.33 ng and 17376.10 ng and the “23G x 6 mm - Cumulative Dex Release” value (Fig 4e, Day 28, mean) was 20281.43 ng. The “30G x 6 mm - Cumulative Dex Release” value (Fig 4e, Day 28, mean) was 16424.87 ng, the “Cumulative Dex Release” value (Fig 5e extruded rods, 4.4 ml PBS, Day 3, samples and avg) was 1097.22 ng and 914.62 ng and 1001.18 ng and the “Cumulative Dex Release” value (Fig 5e extruded rods, 4.4 ml PBS, Day 3, samples and avg, mean) was 1004.34 ng. The “Cumulative Dex Release” value (Fig 5e extruded rods, 4.4 ml PBS, Day 7, samples and avg) was 2505.34 ng and 2182.65 ng and 1890.99 ng, the “Cumulative Dex Release” value (Fig 5e extruded rods, 4.4 ml PBS, Day 7, samples and avg, mean) was 2192.99 ng and the “Cumulative Dex Release” value (Fig 5e extruded rods, 4.4 ml PBS, Day 10, samples and avg) was 3527.54 ng and 3009.52 ng and 2686.37 ng. The “Cumulative Dex Release” value (Fig 5e extruded rods, 4.4 ml PBS, Day 10, samples and avg, mean) was 3074.48 ng, the “Cumulative Dex Release” value (Fig 5e extruded rods, 4.4 ml PBS, Day 14, samples and avg) was 4834.31 ng and 3361.72 ng and 3917.67 ng and the “Cumulative Dex Release” value (Fig 5e extruded rods, 4.4 ml PBS, Day 14, samples and avg, mean) was 4037.90 ng. The “Cumulative Dex Release (%)” value (Fig 5e extruded rods, PBS, Day 3, avg) was 5.68%, the “Cumulative Dex Release (%)” value (Fig 5e extruded rods, PBS, Day 7, avg) was 12.40% and the “Cumulative Dex Release (%)” value (Fig 5e extruded rods, PBS, Day 10, avg) was 17.39%. The “Cumulative Dex Release (%)” value (Fig 5e extruded rods, PBS, Day 14, avg) was 22.83%, the “Cumulative Dex Release” value (Fig 5g pellet 1x1 mm, 2 ml FBS, Day 1, samples and avg) was 7893.42 ng and 9312.84 ng and 6181.88 ng and the “Cumulative Dex Release” value (Fig 5g pellet 1x1 mm, 2 ml FBS, Day 1, samples and avg, mean) was 7796.05 ng. For the same compound, the “Cumulative Dex Release” value (Fig 5g pellet 1x1 mm, 2 ml FBS, Day 4, samples and avg) was 30339.61 ng and 45405.22 ng and 23002.55 ng, the “Cumulative Dex Release” value (Fig 5g pellet 1x1 mm, 2 ml FBS, Day 4, samples and avg, mean) was 32915.79 ng and the “Cumulative Dex Release” value (Fig 5g pellet 1x1 mm, 2 ml FBS, Day 7, samples and avg (Dex-TEG-Dex)) was 54914.64 ng and 66482.50 ng and 47540.80 ng. For the same compound, the “Cumulative Dex Release” value (Fig 5g pellet 1x1 mm, 2 ml FBS, Day 7, samples and avg (Dex-TEG-Dex), mean) was 56312.65 ng, the “Cumulative Dex Release” value (Fig 5g pellet 1x1 mm, 2 ml FBS, Day 12, samples and avg) was 107363.57 ng and 105953.49 ng and 95651.85 ng and the “Cumulative Dex Release” value (Fig 5g pellet 1x1 mm, 2 ml FBS, Day 12, samples and avg, mean) was 102989.64 ng. For the same compound, the “Cumulative Dex Release” value (Fig 5g pellet 1x1 mm, 2 ml FBS, Day 14, samples and avg (Dex-TEG-Dex)) was 134750.54 ng and 130454.95 ng and 117349.61 ng, the “Cumulative Dex Release” value (Fig 5g pellet 1x1 mm, 2 ml FBS, Day 14, samples and avg (Dex-TEG-Dex), mean) was 127518.37 ng and the “Cumulative Dex Release (%)” value (Fig 5g pellet, FBS, Day 1, avg) was 1.53%. For the same compound, the “Cumulative Dex Release (%)” value (Fig 5g pellet, FBS, Day 4, avg) was 6.45%, the “Cumulative Dex Release (%)” value (Fig 5g pellet, FBS, Day 7, avg (Dex-TEG-Dex)) was 11.03% and the “Cumulative Dex Release (%)” value (Fig 5g pellet, FBS, Day 12, avg) was 20.18%. The “Cumulative Dex Release (%)” value (Fig 5g pellet, FBS, Day 14, avg (Dex-TEG-Dex)) was 24.99%, the “Dex Release” value (Surface Area 0.4 mm2) was 4010.80 ng/day and 4214.70 ng/day and 4298.12 ng/day and the “Dex Release” value (Surface Area 2.23 mm2) was 36784.29 ng/day and 23408.43 ng/day and 28616.37 ng/day. The “Dex Release” value (Surface Area 5.3 mm2) was 79250.12 ng/day and 77804.43 ng/day and 51184.45 ng/day, the “Cumulative Dex (%)” value (3.6% BSA, Day 1) was 0.09% and the “Cumulative Dex-TEG (%)” value (3.6% BSA, Day 1) was 0.00388% and 0.000233% and 0.00% and 0.00648%. For the same compound, the “Cumulative Dex-TEG-Dex (%)” value (3.6% BSA, Day 1) was 0.27% and 0.25% and 0.32% and 0.24% and 0.26% and 0.273%, the “Cumulative Dex (%)” value (3.6% BSA, Day 3) was 0.26% and the “Cumulative Dex-TEG (%)” value (3.6% BSA, Day 3) was 0.0221% and 0.0216% and 0.0328% and 0.0218% and 0.0264% and 0.0252%. The “Cumulative Dex-TEG-Dex (%)” value (3.6% BSA, Day 3) was 0.51% and 0.48% and 0.61% and 0.44% and 0.4979%, the “Cumulative Dex-TEG (%)” value (3.6% BSA, Day 7) was 0.08% and 0.09% and 0.10% and 0.12% and the “Cumulative Dex-TEG-Dex (%)” value (3.6% BSA, Day 7) was 0.69% and 0.68% and 0.90% and 0.62% and 0.66% and 0.7212%. For the same compound, the “Cumulative Dex (%)” value (3.6% BSA, Day 10) was 1.32%, the “Cumulative Dex-TEG (%)” value (3.6% BSA, Day 10) was 0.18% and 0.14% and 0.15% and 0.16% and 0.20% and the “Cumulative Dex-TEG-Dex (%)” value (3.6% BSA, Day 10) was 0.89% and 1.18% and 0.82% and 0.87% and 0.9318%. For the same compound, the “Cumulative Dex (%)” value (3.6% BSA, Day 14) was 1.97%, the “Cumulative Dex-TEG (%)” value (3.6% BSA, Day 14) was 0.28% and 0.21% and 0.25% and 0.22% and the “Cumulative Dex-TEG-Dex (%)” value (3.6% BSA, Day 14) was 1.13% and 1.12% and 1.43% and 0.98% and 1.06% and 1.102%. The “Cumulative Dex-TEG (%)” value (100% FBS, Day 1) was 0.00%, the “Cumulative Dex-TEG-Dex (%)” value (100% FBS, Day 1) was 0.045% and 0.05% and 0.07% and the “Cumulative Dex-TEG (%)” value (100% FBS, Day 3) was 0.02% and 0.0246% and 0.00%. For the same compound, the “Cumulative Dex-TEG-Dex (%)” value (100% FBS, Day 3) was 0.11% and 0.16% and 0.18%, the “Cumulative Dex-TEG (%)” value (100% FBS, Day 7) was 0.06% and 0.0546% and 0.04% and the “Cumulative Dex-TEG-Dex (%)” value (100% FBS, Day 7) was 0.22% and 0.28% and 0.36%. The “Cumulative Dex-TEG (%)” value (100% FBS, Day 10) was 0.0647% and 0.0546% and 0.06%, the “Cumulative Dex-TEG-Dex (%)” value (100% FBS, Day 10) was 0.29% and 0.38% and 0.50% and the “Cumulative Dex-TEG (%)” value (100% FBS, Day 14) was 0.08% and 0.10%. For the same compound, the “Cumulative Dex-TEG-Dex (%)” value (100% FBS, Day 14) was 0.39% and 0.49% and 0.68%, the “Cumulative Dex Release” value (Fig 5d coating, 4 ml PBS, Day 3, samples and avg) was 5791.09 ng and 5024.11 ng and the “Cumulative Dex Release” value (Fig 5d coating, 4 ml PBS, Day 3, samples and avg, mean) was 5535.43 ng. The “Cumulative Dex Release” value (Fig 5d coating, 4 ml PBS, Day 7, samples and avg) was 17637.28 ng and 18646.47 ng and 15578.55 ng, the “Cumulative Dex Release” value (Fig 5d coating, 4 ml PBS, Day 7, samples and avg, mean) was 17287.43 ng and the “Cumulative Dex Release” value (Fig 5d coating, 4 ml PBS, Day 10, samples and avg) was 20320.09 ng and 21014.00 ng and 17829.42 ng. The “Cumulative Dex Release” value (Fig 5d coating, 4 ml PBS, Day 10, samples and avg, mean) was 19721.17 ng, the “Cumulative Dex Release” value (Fig 5d coating, 4 ml PBS, Day 14, samples and avg) was 28452.49 ng and 28863.83 ng and 25840.72 ng and the “Cumulative Dex Release” value (Fig 5d coating, 4 ml PBS, Day 14, samples and avg, mean) was 27719.01 ng. For the same compound, the “Cumulative Dex Release (%)” value (Fig 5d coating, PBS, Day 3, avg) was 0.71%, the “Cumulative Dex Release (%)” value (Fig 5d coating, PBS, Day 7, avg) was 2.21% and the “Cumulative Dex Release (%)” value (Fig 5d coating, PBS, Day 10, avg) was 2.52%. For the same compound, the “Cumulative Dex Release (%)” value (Fig 5d coating, PBS, Day 14, avg) was 3.55%.
